Results taken from patent publication EP1247803A2, “Indolinone compounds suitable for modulation of protein kinases” (Sugen, Inc., priority 1996, dated 1998).

What was measured:
MET = MET biochemical kinase assay; parameters: species or system human; concentration or dose not given beside the values
In short: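 Human MET was captured from cell lysates onto ELISA plates via goat anti-rabbit Fc and rabbit polyclonal antibody to the MET cytoplasmic domain. After washing, test compounds and kinase buffer with ATP and divalent metal ions were added. Phosphotyrosine was detected with HRP-conjugated anti-phosphotyrosine antibody and TMB colorimetric read-out.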

EGFR = target: T1, EGFR (Homo sapiens, UniProt P00533); assay: EGFR ELISA assay (in vitro kinase activity, EGFR captured from A431 cell lysate); assay type: biochemical; parameters: concentration or dose not given beside the values
T1 construct: Add 7 ug A431 cell lysate per well (EGFR source); endogenous in cells; host or cells: A431
In short: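 EGFR from A431 lysate was captured on anti-EGFR antibody-coated plates and preincubated with compounds for 30 min. Autophosphorylation ran 5 min with 3 uM ATP and 5 mM MnCl2 (final), stopped with 20 mM EDTA. Phosphotyrosine was detected by anti-pTyr ELISA with ABTS/H2O2, read at 410 nm.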

T1 sequence (P00533 25-1210): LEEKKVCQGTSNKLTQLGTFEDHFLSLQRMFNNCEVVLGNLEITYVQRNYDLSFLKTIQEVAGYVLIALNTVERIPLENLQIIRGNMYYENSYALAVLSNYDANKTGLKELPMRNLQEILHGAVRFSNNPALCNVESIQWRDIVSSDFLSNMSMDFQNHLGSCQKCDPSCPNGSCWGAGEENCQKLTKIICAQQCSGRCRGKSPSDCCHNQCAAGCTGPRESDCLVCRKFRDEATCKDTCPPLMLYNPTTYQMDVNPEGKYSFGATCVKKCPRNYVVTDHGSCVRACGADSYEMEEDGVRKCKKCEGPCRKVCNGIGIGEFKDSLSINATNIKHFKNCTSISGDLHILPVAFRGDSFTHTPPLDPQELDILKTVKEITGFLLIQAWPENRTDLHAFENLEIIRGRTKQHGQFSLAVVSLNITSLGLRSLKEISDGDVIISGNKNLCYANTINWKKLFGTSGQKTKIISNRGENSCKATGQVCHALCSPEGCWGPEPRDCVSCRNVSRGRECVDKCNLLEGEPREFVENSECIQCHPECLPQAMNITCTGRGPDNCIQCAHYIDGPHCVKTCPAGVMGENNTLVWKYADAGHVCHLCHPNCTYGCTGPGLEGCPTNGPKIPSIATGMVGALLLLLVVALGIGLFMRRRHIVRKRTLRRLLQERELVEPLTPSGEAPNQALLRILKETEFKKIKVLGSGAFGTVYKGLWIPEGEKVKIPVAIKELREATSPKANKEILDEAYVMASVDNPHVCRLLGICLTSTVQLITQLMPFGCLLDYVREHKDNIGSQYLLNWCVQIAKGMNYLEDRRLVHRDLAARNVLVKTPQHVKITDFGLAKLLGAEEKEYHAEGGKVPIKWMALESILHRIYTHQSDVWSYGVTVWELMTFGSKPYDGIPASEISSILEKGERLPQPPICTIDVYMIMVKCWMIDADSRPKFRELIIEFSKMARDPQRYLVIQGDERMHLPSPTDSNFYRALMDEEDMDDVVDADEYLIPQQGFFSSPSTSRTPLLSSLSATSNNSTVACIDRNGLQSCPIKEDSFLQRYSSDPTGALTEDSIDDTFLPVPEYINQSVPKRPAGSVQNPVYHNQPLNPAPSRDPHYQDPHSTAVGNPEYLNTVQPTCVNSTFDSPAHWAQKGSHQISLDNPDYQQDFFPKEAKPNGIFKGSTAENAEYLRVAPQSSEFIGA

With `O=C1Nc2ccc(I)cc2C1=Cc1ccccc1Sc1ccc(Cl)cc1` [10727/B05] the “Met Kinase % Inhibition” value (MET) was 83.3% and the “Biochem EGFR %Inhibition” value (EGFR) was 39.0%.
With `CCN(CC)c1ccc(C=C2C(=O)Nc3ccc(I)cc32)cc1` [10727/B02] the “Met Kinase % Inhibition” value (MET) was 90.5% and the “Biochem EGFR %Inhibition” value (EGFR) was -18.4%.
With `CNS(=O)(=O)c1ccc2c(c1)C(=Cc1cn(C)cc1C)C(=O)N2` [10726/D06] the “Met Kinase % Inhibition” value (MET) was 42.8% and the “Biochem EGFR %Inhibition” value (EGFR) was -24.4%.
With `O=C1Nc2ccc(CCCl)cc2C1=Cc1ccc(F)cc1` [10717/G05] the “Met Kinase % Inhibition” value (MET) was 4.7% and the “Biochem EGFR %Inhibition” value (EGFR) was -0.1%.
In the case of `O=C1Nc2ccc(F)cc2C1=C1C(=O)Nc2ccc(S(=O)(=O)Nc3ccc(C(F)(F)F)cc3)cc21` [10726/E08], the “Met Kinase % Inhibition” value (MET) is reported as 58.9% and the “Biochem EGFR %Inhibition” value (EGFR) is reported as -8.5%.
With `CNS(=O)(=O)c1ccc2c(c1)C(=C1C(=O)Nc3ccccc31)C(=O)N2` [10726/D09] the “Met Kinase % Inhibition” value (MET) was 45.7% and the “Biochem EGFR %Inhibition” value (EGFR) was -6.5%.
`O=C1Nc2ccc(CCCl)cc2C1=Cc1ccc[nH]1` [10717/G09] was tested, and the “Met Kinase % Inhibition” value (MET) was 19.1% and the “Biochem EGFR %Inhibition” value (EGFR) was 24.9%.
With `Cc1c(Br)ccc2c1C(=Cc1cccc(C#N)c1)C(=O)N2` [10727/C08] the “Met Kinase % Inhibition” value (MET) was 47.8% and the “Biochem EGFR %Inhibition” value (EGFR) was 3.6%.
`CCc1cc(CC)c(C=C2C(=O)Nc3ccc(Br)c(C)c32)[nH]1` [10727/C03] was tested, and the “Met Kinase % Inhibition” value (MET) was 11.9% and the “Biochem EGFR %Inhibition” value (EGFR) was 14.6%.
For `Cc1c(Br)ccc2c1C(=Cc1ccc(C#N)cc1)C(=O)N2` [10727/C09], the “Met Kinase % Inhibition” value (MET) was 37.9% and the “Biochem EGFR %Inhibition” value (EGFR) was 16.6%.
For `CCc1ccc(C=C2C(=O)Nc3ccc(CCCl)cc32)s1` [10726/G10], the “Met Kinase % Inhibition” value (MET) was 26.8% and the “Biochem EGFR %Inhibition” value (EGFR) was 6.0%.
In the case of `COc1ccc(C=C2C(=O)Nc3ccc(S(=O)(=O)N4CCOCC4)cc32)cc1` [10726/F11], the “Met Kinase % Inhibition” value (MET) is reported as 57.6% and the “Biochem EGFR %Inhibition” value (EGFR) is reported as -16.8%.
`Cc1c(Br)ccc2c1C(=Cc1coc3ccccc3c1=O)C(=O)N2` [10727/C07] was tested, and the “Met Kinase % Inhibition” value (MET) was 36.7% and the “Biochem EGFR %Inhibition” value (EGFR) was 8.4%.
With `O=C1Nc2c(Br)cc(Br)cc2C1=Cc1cc(Cl)cc(Br)c1O` [10727/A04] the “Met Kinase % Inhibition” value (MET) was 80.9% and the “Biochem EGFR %Inhibition” value (EGFR) was 28.2%.
In the case of `O=C1Nc2ccc(I)cc2C1=Cc1coc2ccccc2c1=O` [10727/B07], the “Met Kinase % Inhibition” value (MET) is reported as 83.5% and the “Biochem EGFR %Inhibition” value (EGFR) is reported as 46.5%.
With `N#Cc1cccc(C=C2C(=O)Nc3c(Br)cc(Br)cc32)c1` [10727/A08] the “Met Kinase % Inhibition” value (MET) was 9.7% and the “Biochem EGFR %Inhibition” value (EGFR) was 9.7%.
`CCOC(=O)c1[nH]c(C=C2C(=O)Nc3ccc(CCCl)cc32)c(C(=O)OC)c1C` [10726/G03] was tested, and the “Met Kinase % Inhibition” value (MET) was 26.8% and the “Biochem EGFR %Inhibition” value (EGFR) was -17.2%.
`O=C1Nc2ccc(S(=O)(=O)N3CCOCC3)cc2C1=Cc1ccc(Br)o1` [10726/F05] was tested, and the “Met Kinase % Inhibition” value (MET) was 51.2% and the “Biochem EGFR %Inhibition” value (EGFR) was -26.8%.
For `CNS(=O)(=O)c1ccc2c(c1)C(=C1C(=O)Nc3ccc(F)cc31)C(=O)N2` [10726/D08], the “Met Kinase % Inhibition” value (MET) was 39.5% and the “Biochem EGFR %Inhibition” value (EGFR) was -11.4%.
In the case of `COc1ccc(C=C2C(=O)Nc3ccc(Br)c(C)c32)cc1` [10726/C11], the “Met Kinase % Inhibition” value (MET) is reported as 34.7% and the “Biochem EGFR %Inhibition” value (EGFR) is reported as 4.8%.
